EC50 and IC50 data for 19 molecules are collected here from US11702414B2, “Thiadiazole IRAK4 inhibitors” (Gilead Sciences, Inc., priority 2018, dated 2023).

Experiment [1] concerns TNFα. The experiment is described as follows: IRAK4 Monocyte TNFα Cell Based Assay. Further details: species or system human. Conditions: Homo sapiens, Monocyte, read-out: EC50MONO TNF HTRF. The method, then: IRAK4 Monocyte TNFα Cell Based Assay Procedure:
The cell suspension was then plated at a density of 5,000 cells/well onto black 384 well Greiner clear bottom plates. Plates were pre-spotted with test compounds and serially diluted in DMSO where 40 nL/well were delivered using the Echo 550 acoustic liquid dispenser (Labcyte®) for a final DMSO concentration of 0.1%. Plated cells were treated with compound for 1 hour at 37° C. Cells were then stimulated with 50 pg/ml of LPS (Sigma) excluding outside columns of plate used for unstimulated cell control wells. Cells were incubated for an additional 4 hours at 37° C. Cells were then spun out of the media and 5μl of sample were taken and analyzed for total TNFα content using the TR-FRET Human TNFα detection system (CisBio). This system utilizes two labeled antibodies (cryptate and XL665) that bind to two different epitopes of the TNFα molecule and produce FRET signal proportional to the concentration of TNFα in the sample. Detection antibodies are mixed 50:50 and 5 μL were dispensed into each well. Plates were covered with clear seals and incubated at room temp overnight. […] Percent of control was calculated as follows: % Control=100×(RatioSample−Ratio0% Stimulation)/(Ratio100% Stimulation−Ratio0% Stimulation) where unstimulated cells (0% stimulation) were the negative control and stimulated cells (100% stimulation) were used as the positive control.
On the technique in general: In TR-FRET formats the signal depends on donor and acceptor labels being close together.

The target in experiment [2] is IRAK4 enzyme (Homo sapiens (Human), UniProt Q9NWZ3). The experiment is described as follows: IRAK4 Biochemical Assay (TR-FRET, STK1 KinEASE). The protocol: IRAK4 enzyme (Carna Biosciences, Chuo-ku, Kobe, Japan) activity was measured by detecting phosphorylated peptide substrate formation using an antibody against the phosphorylated peptide substrate. This is a time-resolved fluorescence resonance energy transfer (TR-FRET) immunoassay, based on the STK1 KinEASE Assay (Cisbio, Bedford, Mass.). The assay was designed as a simple two-step, endpoint assay (a 5 μl enzyme reaction followed by 5 μl stop and detect Solution) performed in ProxiPlate-384 Plus plates (Perkin Elmer, Waltham, Mass.). […] Compounds diluted in DMSO were spotted into 384 well plates using a Labcyte® Echo 550 Liquid Handling System prior to addition of IRAK4 enzyme and peptide substrate. Reaction solutions were delivered using a Multi-Flo (Bio-Tek Instruments). The enzyme and peptide solution was incubated with compound for 15 minutes at room temp before the reaction was initiated by the addition of ATP. The standard 5 μl reaction mixture contained 500 μM ATP, 2 μM peptide (STK1 Peptide), 0.75 nM of IRAK4 in reaction buffer (50 mM HEPES, pH 7.0, 0.02% NaN3, 0.01% BSA, 0.1 mM Orthovanadate, 5 mM MgCl2, 0.025% NP-40, 1 mM DTT). After 120 min of incubation at room temperature, 5 μl of Stop and Detect Solution (1:100 Cryptate labeled anti-phosphorylated peptide antibody solution and 125 nM Tracer in a 50 mM HEPES pH 7.0 detection buffer containing sufficient EDTA) was added. The plate was then further incubated for 60 minutes at room temperature and read on Envision 2103 Multilabeled reader (PerkinElmer) with excitation/emission/FRET emission at 340 nm/615 nm/665 nm, respectively. Fluorescence intensities at 615 nm and 665 nm emission wavelengths were expressed as a ratio (665 nm/615 nm). Percentage of inhibition was calculated as below: % Inhibition=100×(RatioSample−Ratio0% Inhibition)/(Ratio100% Inhibition−Ratio0% Inhibition)
The 0% inhibition value comes from control wells lacking inhibitor.

[3] abbreviates: human monocytes, second part of Table 2 (compounds 33-343), unit inferred.

Like-named read-outs stand apart in the source and are kept apart here.

IRAK4 enzyme, sequence (Q9NWZ3 whole entry): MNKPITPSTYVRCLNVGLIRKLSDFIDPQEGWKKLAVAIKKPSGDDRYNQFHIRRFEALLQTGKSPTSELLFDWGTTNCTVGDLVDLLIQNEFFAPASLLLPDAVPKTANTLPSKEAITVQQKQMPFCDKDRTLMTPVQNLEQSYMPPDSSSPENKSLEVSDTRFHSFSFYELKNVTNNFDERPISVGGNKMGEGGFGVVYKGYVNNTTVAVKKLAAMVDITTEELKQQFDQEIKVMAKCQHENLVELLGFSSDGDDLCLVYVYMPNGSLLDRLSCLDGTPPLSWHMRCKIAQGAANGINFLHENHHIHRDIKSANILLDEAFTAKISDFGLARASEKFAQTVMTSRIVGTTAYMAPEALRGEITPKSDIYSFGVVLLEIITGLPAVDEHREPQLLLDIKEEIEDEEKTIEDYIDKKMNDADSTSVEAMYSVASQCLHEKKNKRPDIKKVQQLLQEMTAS

In general, IC50 refers to the point on the concentration scale where inhibition reaches its midpoint. For the molecule `CC(=O)N1CCN(c2nnc(-c3cnc(-c4ccc5cc(C#N)cnn45)cc3NC(C)C)s2)CC1` [Compound 232, 7-(5-(5-(4-acetylpiperazin-1-yl)-1,3,4-thiadiazol-2-yl)-4-(isopropylamino)pyridin-2-yl)pyrrolo[1,2-b]pyridazine-3-carbonitrile], the EC50 in experiment [1] (setting [3]) came out at 7.4 nM. In experiment [2], this molecule returned an IC50 of 0.62 nM.
For the molecule `CC(=O)N1C2CC1CN(c1nnc(-c3cnc(-c4ccc5cc(C#N)cnn45)cc3NC(C)C)s1)C2` [Compound 258, 7-(5-(5-(6-acetyl-3,6-diazabicyclo[3.1.1]heptan-3-yl)-1,3,4-thiadiazol-2-yl)-4-(isopropylamino)pyridin-2-yl)pyrrolo[1,2-b]pyridazine-3-carbonitrile], the EC50 in experiment [1] is 5.8 nM. Besides, the IC50 in experiment [2] was determined as 1.26 nM.
The matching figures for `CC(=O)N1CC2CCC(C1)N2c1nnc(-c2cnc(-c3ccc4cc(C#N)cnn34)cc2NC(C)C)s1` [Compound 260, 7-(5-(5-(3-acetyl-3,8-diazabicyclo[3.2.1]octan-8-yl)-1,3,4-thiadiazol-2-yl)-4-(isopropylamino)pyridin-2-yl)pyrrolo[1,2-b]pyridazine-3-carbonitrile]: 15.8 nM and 2.56 nM.
Consider `CC(=O)N1CC2CC(C1)N2c1nnc(-c2cnc(-c3ccc4cc(C#N)cnn34)cc2NC(C)C)s1` [Compound 261, 7-(5-(5-(3-acetyl-3,6-diazabicyclo[3.1.1]heptan-6-yl)-1,3,4-thiadiazol-2-yl)-4-(isopropylamino)pyridin-2-yl)pyrrolo[1,2-b]pyridazine-3-carbonitrile], for which the EC50 in experiment [1] is 18.3 nM. In experiment [2], this molecule showed an IC50 of 0.73 nM.
Turning to `CC(=O)N1C2CCC1CN(c1nnc(-c3cnc(-c4ccc5cc(C#N)cnn45)cc3NC3(C)COC3)s1)C2` [Compound 264, 7-(5-(5-(8-acetyl-3,8-diazabicyclo[3.2.1]octan-3-yl)-1,3,4-thiadiazol-2-yl)-4-((3-methyloxetan-3-yl)amino)pyridin-2-yl)pyrrolo[1,2-b]pyridazine-3-carbonitrile], the EC50 in experiment [1] came out at 2.7 nM. In experiment [2], half-maximal inhibition (IC50) required 0.59 nM.
As to `CC(=O)N1C[C@H]2COC[C@@H](C1)N2c1nnc(-c2cnc(-c3ccc4cc(C#N)cnn34)cc2NC(C)C)s1` [Compound 266, 7-(5-(5-((1R,5S)-7-acetyl-3-oxa-7,9-diazabicyclo[3.3.1]nonan-9-yl)-1,3,4-thiadiazol-2-yl)-4-(isopropylamino)pyridin-2-yl)pyrrolo[1,2-b]pyridazine-3-carbonitrile], the EC50 in experiment [1] was 3.2 nM. In experiment [2] (second part of Table 2 (compounds 33-343), unit inferred, read-out: IC50 IRAK4-HTBS), the IC50 came to 0.49 nM.
As to `CC(=O)N1[C@@H]2COC[C@H]1CN(c1nnc(-c3cnc(-c4ccc5cc(C#N)cnn45)cc3NC3CCOCC3)s1)C2` [Compound 269, 7-(5-(5-((1R,5S)-9-acetyl-3-oxa-7,9-diazabicyclo[3.3.1]nonan-7-yl)-1,3,4-thiadiazol-2-yl)-4-((tetrahydro-2H-pyran-4-yl)amino)pyridin-2-yl)pyrrolo[1,2-b]pyridazine-3-carbonitrile], the EC50 in experiment [1] was 5.8 nM. The molecule also displayed an IC50 in experiment [2] of 0.8 nM.
On to `CC(C)Nc1cc(-c2ccc3cc(C#N)cnn23)ncc1-c1nnc(CC#N)s1` [Compound 321, 7-(5-(5-(cyanomethyl)-1,3,4-thiadiazol-2-yl)-4-(isopropylamino)pyridin-2-yl)pyrrolo[1,2-b]pyridazine-3-carbonitrile], for which the EC50 in experiment [1] (setting [3]) came out at 53.5 nM. Also, the IC50 in experiment [2] was determined as 1.46 nM.
As for `CC(C)Nc1cc(-c2ccc3cc(C#N)cnn23)ncc1-c1nnc(C2CCOC2)s1` (stereo not drawn) [Compound 322, 7-(4-(isopropylamino)-5-(5-(tetrahydrofuran-3-yl)-1,3,4-thiadiazol-2-yl)pyridin-2-yl)pyrrolo[1,2-b]pyridazine-3-carbonitrile], the EC50 in experiment [1] (setting [3]) amounted to 419 nM. This molecule also displayed a 50% inhibitory concentration (IC50) in experiment [2] of 0.31 nM.
With `CC(=O)N[C@H]1CN(c2nnc(-c3cnc(-c4ccc5cc(C#N)cnn45)cc3NC(C)C)s2)CC12CC2` [Compound 323, (R)-N-(5-(5-(6-(3-cyanopyrrolo[1,2-b]pyridazin-7-yl)-4-(isopropylamino)pyridin-3-yl)-1,3,4-thiadiazol-2-yl)-5-azaspiro[2.4]heptan-7-yl)acetamide], the EC50 in experiment [1] (setting [3]) turned out to be 3.7 nM. Further, the IC50 in experiment [2] stood at 0.62 nM.
In the same order, the values of `CC(=O)N[C@@H]1CN(c2nnc(-c3cnc(-c4ccc5cc(C#N)cnn45)cc3NC(C)C)s2)CC12CC2` [Compound 324, (S)-N-(5-(5-(6-(3-cyanopyrrolo[1,2-b]pyridazin-7-yl)-4-(isopropylamino)pyridin-3-yl)-1,3,4-thiadiazol-2-yl)-5-azaspiro[2.4]heptan-7-yl)acetamide] are 19.1 nM and 0.99 nM.
In the same order, the values of `CC(C)Nc1cc(-c2ccc3cc(C#N)cnn23)ncc1-c1nnc(-n2cccn2)s1` [Compound 325, 7-(5-(5-(1H-pyrazol-1-yl)-1,3,4-thiadiazol-2-yl)-4-(isopropylamino)pyridin-2-yl)pyrrolo[1,2-b]pyridazine-3-carbonitrile] are 1000 nM and 8.07 nM.
In the case of `CC(C)Nc1cc(-c2ccc3cc(C#N)cnn23)ncc1-c1nnc(-n2cnc(C3CC3)c2)s1` [Compound 326, 7-(5-(5-(4-cyclopropyl-1H-imidazol-1-yl)-1,3,4-thiadiazol-2-yl)-4-(isopropylamino)pyridin-2-yl)pyrrolo[1,2-b]pyridazine-3-carbonitrile], the IC50 in experiment [2] turned out to be 6.01 nM.
In the case of `CC(=O)NC1CN(c2nnc(-c3cnc(-c4ccc5cc(C#N)cnn45)cc3NC(C)C)s2)CC1(F)F` (stereo not drawn) [Compound 327, N-(1-(5-(6-(3-cyanopyrrolo[1,2-b]pyridazin-7-yl)-4-(isopropylamino)pyridin-3-yl)-1,3,4-thiadiazol-2-yl)-4,4-difluoropyrrolidin-3-yl)acetamide], in experiment [1] (setting [3]), the EC50 worked out at 10.2 nM. In experiment [2], this molecule came in with a half-maximal inhibitory concentration (IC50) of 0.37 nM.
For `CC(C)Nc1cc(-c2ccc3cc(C#N)cnn23)ncc1-c1nnc(N2CC(N3CCC(F)(F)C3)C2)s1` [Compound 328, 7-(5-(5-(3-(3,3-difluoropyrrolidin-1-yl)azetidin-1-yl)-1,3,4-thiadiazol-2-yl)-4-(isopropylamino)pyridin-2-yl)pyrrolo[1,2-b]pyridazine-3-carbonitrile], in experiment [1] (setting [3]), the EC50 turned out to be 80.5 nM. The IC50 in experiment [2] worked out at 1.02 nM.
`CC(C)Nc1cc(-c2ccc3cc(C#N)cnn23)ncc1-c1nnc(N2CCC[C@H]2CO)s1` [Compound 329, (S)-7-(5-(5-(2-(hydroxymethyl)pyrrolidin-1-yl)-1,3,4-thiadiazol-2-yl)-4-(isopropylamino)pyridin-2-yl)pyrrolo[1,2-b]pyridazine-3-carbonitrile]: the EC50 in experiment [1] (setting [3]) is 54.2 nM. The same molecule returned an IC50 in experiment [2] of 0.84 nM.
The matching figures for `CC(=O)N[C@@H]1CCN(c2nnc(-c3cnc(-c4ccc5cc(C#N)cnn45)cc3NC(C)C)s2)C1` [Compound 330, (R)-N-(1-(5-(6-(3-cyanopyrrolo[1,2-b]pyridazin-7-yl)-4-(isopropylamino)pyridin-3-yl)-1,3,4-thiadiazol-2-yl)pyrrolidin-3-yl)acetamide]: 47.1 nM and 1.8 nM.
The matching figures for `CC(=O)N[C@H]1CCN(c2nnc(-c3cnc(-c4ccc5cc(C#N)cnn45)cc3NC(C)C)s2)C1` [Compound 331, (S)-N-(1-(5-(6-(3-cyanopyrrolo[1,2-b]pyridazin-7-yl)-4-(isopropylamino)pyridin-3-yl)-1,3,4-thiadiazol-2-yl)pyrrolidin-3-yl)acetamide]: 81.4 nM and 1.21 nM.
In experiment [2], `CC(=O)N[C@H]1CCN(c2nnc(-c3cnc(-c4ccc5cc(C#N)cnn45)cc3NC(C)C)s2)C[C@@H]1O` [Example 64, N-((3S,4S)-1-(5-(6-(3-cyanopyrrolo[1,2-b]pyridazin-7-yl)-4-(isopropylamino)pyridin-3-yl)-1,3,4-thiadiazol-2-yl)-3-hydroxypiperidin-4-yl)acetamide] returned an IC50 of 0.28 nM.
